# Reference: PMC12302718, “Molecular basis for Gβγ-SNARE-mediated inhibition of synaptic vesicle fusion” (The Journal of Biological Chemistry, 2025)
# Where no end group is shown, it is not given here.
# Experiments:
# [1] = tested on: SNAP25; conditions: read-out: Potency in competing with full-length Gβ1γ2 for binding to SNAP25; peptide competition studies; cited from earlier work
# Description: The importance of the N-terminal binding site is supported by the findings presented here as well as by previous findings, both in cell-based assays and in vitro binding studies ([10], [39]).
# [2] = target: T1, Gβ1γ2/SNAP25 interaction (Homo sapiens, UniProt P60880); test: Alphascreen competition-binding assay (peptides vs full-length Gβ1γ2/SNAP25); conditions: read-out: IC50, competition of SNAP25 C-terminal peptide with full-length SNAP25 for binding to Gβ1γ2, 95% CI: 1.27–2.70 μM, n = 21 technical replicates
# T1 construct: made in house
# T1 sequence (P60880 whole entry): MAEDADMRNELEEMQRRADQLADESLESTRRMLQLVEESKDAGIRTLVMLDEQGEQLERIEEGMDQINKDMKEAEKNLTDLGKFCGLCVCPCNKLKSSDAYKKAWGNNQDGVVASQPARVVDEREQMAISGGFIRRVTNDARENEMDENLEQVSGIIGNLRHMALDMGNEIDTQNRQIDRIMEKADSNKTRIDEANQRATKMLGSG
# Description: Proximity of Alphascreen beads due to Gβ1γ2/SNAP25 interactions produces a luminescent signal. […] A value of 100% was assigned to the average of all conditions tested containing only DMSO as a positive control. The data points correspond to the mean ± SD percentage of positive control luminescence (n = 3 technical replicates). Data were fitted with a four-parameter non-linear regression model in GraphPad Prism to obtain IC50 values for each peptide (Table 1).
# Alphascreen luminescence measurements were performed as described ([33]). […] An EC80 concentration of 180 nM purified His6-Gβ1γ2 was made in assay buffer. Peptide stocks in DMSO were spotted onto 384-well white OptiPlates (PerkinElmer Life Sciences) at concentration ranges of 1 nM to 100 μM using a Labcyte Echo 555 Omics acoustic liquid handler (Labcyte), with DMSO being back-added to a final concentration of 0.1%. […] Subsequent to incubation while shaking for an additional 5 min, 10 μl of Alphascreen Histidine Detection Kit (nickel chelate) acceptor beads were added to a final concentration of 20 μg/ml in assay buffer. […] After being spun down briefly to settle all fluid at the bottom of the well, plates were incubated for an additional 1 h at 27 °C before being read in the EnSpire. […] IC50 concentrations for each peptide were determined by sigmoidal dose-response curve-fitting with variable slope.
# [3] = tested on: partially zipped and fully zipped ternary SNARE mimetics; tSNARE; test: Peptide array / far-Western blot with ternary SNARE mimetics and tSNARE; format: binding, rat; conditions: 0.5 μM SNARE protein, far-Western probed for SNAP25
# Description: Binding was quantified as a fraction of the densitometric signal of a positive control peptide corresponding to residues 48 to 62 of rat complexin-1, which interacts with the ternary SNARE complex in co-crystal structures ([41], [51], [52]).
# Quantification of (A) Gβ1 and (B) Gγ2 peptides binding to the partially zipped (black striped bars) and fully zipped SNARE (gray bars). Densitometry measurements were normalized to a positive control peptide spot corresponding to a portion of the rat complexin-1 central helix (residues 48–62). Bar graphs represent the mean ± SD of three technical replicates. A, both SNARE mimetics interact with the N-terminal α-helix (H1, red), L1 (orange), B1 (yellow), and B2 (green) of Gβ1. […]
# Peptide array synthesis was performed using the ResPep SL peptide synthesizer (Intavis AG) according to standard SPOT synthesis protocols ([44], [70]). […] Spots were detected using HRP-conjugated secondary antibodies as described by the manufacturer. For densitometric analysis comparing Gβ and Gγ isoforms, the signal in individual dots was quantified as a percentage of total density detected on the membrane (Quantity One and Image Lab, Bio Rad, and Image J [Schneider et al., 2012]). […] Quantification of Gβ1 and Gγ2 peptide spots binding to ternary SNARE mimetics was performed by normalizing within each blot to a positive control corresponding to residues 48 to 62 of complexin-1. […]
# [4] = target: fully zipped ternary SNARE mimetic; test: Microscale Thermophoresis (MST) affinity analysis, fully zipped SNARE; set-up: species or system rat; conditions: 250 nM fluorescently labeled (Red-Tris-NTA) Gβ1γ2, SNARE 0.56 nM−19.5 μM, n = 3 technical replicates, read-out: KD, binding to fully zipped SNARE
substance,measurement,setting,value
"Gβ1 residues 328 to 337: peptide corresponding to Gβ1 residues 328 to 337, from ref 39 (ATGSWDSFLK; UniProt P62873 328-337, looked up, fragment)",IC50,[1],~28 µM
TRIDEANQRATKMLGSG,IC50,[2],1.84 µM
"Gγ2 peptide 19: 15-mer Gγ2 array peptide number 19, membrane-coupled (PASENPFREKKFFCA; also: C-terminus coupled to the membrane)","Binding pattern, tSNARE versus ternary SNARE mimetics",[3],bound to tSNARE but not ternary SNARE
Gβ1γ2: His-tagged soluble Gβ1γ2 (C68S) heterodimer purified from Sf9 cells,Kd,[4],> 13 µM
